Source: article PMC11110727, “Exploiting thiol-functionalized benzosiloxaboroles for achieving diverse substitution patterns – synthesis, characterization and biological evaluation of promising antibacterial agents” (RSC Medicinal Chemistry, 2024)
Converted amounts (≈) assume the structure as drawn.

Tests used:
E. coli ATCC 25922 = assay: Antibacterial activity: MIC/MBC, MIC with PAβN, disc-diffusion; assay type: cell-based, Escherichia coli; settings: E. coli ATCC 25922; for MIC: Escherichia coli, ATCC25922, read-out: MIC
How it was run: (§1)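 Strains were subcultured twice on TSA at 30 °C. They were then tested by disc diffusion (EUCAST/CLSI), by CLSI broth-microdilution MIC in Mueller–Hinton II broth and by CLSI MBC, with compounds in DMSO.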

K. pneumoniae ATCC 13883 = assay: as above; assay type: cell-based, Klebsiella pneumoniae; settings: K. pneumoniae ATCC 13883; for MIC: Klebsiella pneumoniae, ATCC13883, read-out: MIC
How it was run: as §1

S. marcescens ATCC 13880 = assay: as above; assay type: cell-based, Serratia marcescens; settings: Serratia marcescens, ATCC13880; S. marcescens ATCC 13880; read-out: MIC
How it was run: as §1

B. cepacia ATCC 25416 = assay: Antibacterial activity: MIC/MBC, disc-diffusion; assay type: cell-based, Burkholderia cepacia; settings: Burkholderia cepacia, ATCC25416; B. cepacia ATCC 25416; read-out: MIC
How it was run: as §1

[1] = test system: B. bronchiseptica ATCC 4617; assay: Antibacterial activity: MIC/MBC, disc-diffusion; assay type: cell-based, Bordetella bronchiseptica; settings: Bordetella bronchiseptica, ATCC4617; B. bronchiseptica ATCC 4617; read-out: MIC
How it was run: as §1

C. albicans ATCC 90028 = assay: Antifungal activity: MIC/MFC, disc-diffusion; assay type: cell-based, Candida albicans; settings: for MIC: Candida albicans, ATCC90028, read-out: MIC
How it was run: (§2)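 Method: disc diffusion + MIC per EUCAST/CLSI; MBC/MFC per CLSI. Bacteria passaged twice on TSA, yeasts on Sabouraud agar, 24–48 h at 30 °C. Test compounds in DMSO.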

[2] = test system: C. guilliermondii IBA 155; assay: Antifungal activity: MIC/MFC, disc-diffusion; assay type: cell-based; settings: for MIC: Meyerozyma guilliermondii, IBA155, read-out: MIC
How it was run: as §2

[3] = test system: C. parapsilosis ATCC 22019; assay: Antifungal activity: MIC/MFC, disc-diffusion; assay type: cell-based; settings: Lodderomyces parapsilosis, ATCC22019; read-out: MIC
How it was run: as §2

C. tropicalis ATCC 750 = assay: Antifungal activity: MIC/MFC, disc-diffusion; assay type: cell-based; settings: Candida tropicalis, ATCC750; read-out: MIC
How it was run: as §2

C. tropicalis IBA 171 = assay: Antifungal activity: MIC/MFC, disc-diffusion; assay type: cell-based; settings: Candida tropicalis, IBA171; read-out: MIC
How it was run: as §2

S. cerevisiae ATCC 9763 = assay: Antifungal activity: MIC/MFC, disc-diffusion; assay type: cell-based, Saccharomyces cerevisiae; settings: for diameter of inhibition zone / MFC: S. cerevisiae ATCC 9763; for diameter of inhibition zone: (-) = zone not observed, paper discs 9 mm; for MFC / MIC: Saccharomyces cerevisiae, ATCC9763; for MIC: read-out: MIC
How it was run: as §2

[4] = PAβN 20 μg mL^−1, MHB + 1 mM MgSO4

SMILES: COC(=O)CCSc1ccc2c(c1F)[Si](C)(C)OB2O [Compound 4, Methyl 3-((7-fluoro-3-hydroxy-1,1-dimethyl-1,3-dihydrobenzo[c][1,2,5]oxasilaborol-6-yl)thio)propanoate]
- diameter of inhibition zone (E. coli ATCC 25922; (-) = zone not observed, paper discs 9 mm): 15 mm
- -fold reduction of MIC in the presence of PAβN (E. coli ATCC 25922; [4]): 8 -fold
- MIC (E. coli ATCC 25922): 400 µg/mL (≈ 1270 µM)
- -fold reduction of MIC in the presence of PAβN (K. pneumoniae ATCC 13883; [4]): 8 -fold
- MIC (K. pneumoniae ATCC 13883): > 400 µg/mL
- MIC (S. marcescens ATCC 13880): > 400 µg/mL
- MIC (B. cepacia ATCC 25416): > 400 µg/mL
- MIC [1]: > 400 µg/mL
- diameter of inhibition zone (C. albicans ATCC 90028; C. albicans ATCC 90028, (-) = zone not observed, paper discs 9 mm): 12 mm
- MIC (C. albicans ATCC 90028): > 400 µg/mL
- diameter of inhibition zone ([2]; C. guilliermondii IBA 155, (-) = zone not observed, paper discs 9 mm): 12 mm
- MIC [2]: 400 µg/mL (≈ 1270 µM)
- MIC [3]: 400 µg/mL (≈ 1270 µM)
- MIC (C. tropicalis ATCC 750): > 400 µg/mL
- MIC (C. tropicalis IBA 171): > 400 µg/mL
- diameter of inhibition zone (S. cerevisiae ATCC 9763): 32 mm
- MFC (S. cerevisiae ATCC 9763): 400 µg/mL (≈ 1270 µM)
- MIC (S. cerevisiae ATCC 9763): 12.5 µg/mL (≈ 39.8 µM)

SMILES: C[Si]1(C)OB(O)c2ccc(SCC(=O)c3ccccc3)c(F)c21 [Compound 23, 2-((7-Fluoro-3-hydroxy-1,1-dimethyl-1,3-dihydrobenzo[c][1,2,5]oxasilaborol-6-yl)thio)-1-phenylethan-1-one]
- MIC (E. coli ATCC 25922): > 400 µg/mL
- MIC (K. pneumoniae ATCC 13883): > 400 µg/mL
- MIC (S. marcescens ATCC 13880): > 400 µg/mL
- MIC (B. cepacia ATCC 25416): > 400 µg/mL
- MIC [1]: > 400 µg/mL
- MIC (C. albicans ATCC 90028): > 400 µg/mL
- MIC [2]: > 400 µg/mL
- MIC [3]: 400 µg/mL (≈ 1160 µM)
- MIC (C. tropicalis ATCC 750): 400 µg/mL (≈ 1160 µM)
- MIC (C. tropicalis IBA 171): 400 µg/mL (≈ 1160 µM)
- diameter of inhibition zone (S. cerevisiae ATCC 9763): 24 mm
- MFC (S. cerevisiae ATCC 9763): 200 µg/mL (≈ 578 µM)
- MIC (S. cerevisiae ATCC 9763): 25 µg/mL (≈ 72.2 µM)
